According to PubChem BioAssay (NCI):
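Five concentrations, 48 hours, 96-well plates. Abbreviation: GI50, concentration required for 50% inhibition of growth. At the TGI there is no net growth.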

Key:
Assay in all cases: NCI anticancer screen, dose series, 48 h
786-0 renal = system: 786-0 renal
A498 renal = system: A498 renal
A549 NSCLC = system: A549 NSCLC
ACHN renal = system: ACHN renal
CCRF-CEM leukemia = system: CCRF-CEM leukemia
COLO 205 colon = system: COLO 205 colon
DU-145 prostate = system: DU-145 prostate
EKVX NSCLC = system: EKVX NSCLC
HCC-2998 colon = system: HCC-2998 colon
HCT-116 colon = system: HCT-116 colon
HCT-15 colon = system: HCT-15 colon
HL-60(TB) leukemia = system: HL-60(TB) leukemia
HOP-62 NSCLC = system: HOP-62 NSCLC
HOP-92 NSCLC = system: HOP-92 NSCLC
HS 578T breast = system: HS 578T breast
HT29 colon = system: HT29 colon
IGROV1 ovarian = system: IGROV1 ovarian
KM12 colon = system: KM12 colon
LOX IMVI melanoma = system: LOX IMVI melanoma
M14 melanoma = system: M14 melanoma
MALME-3M melanoma = system: MALME-3M melanoma
MCF7 breast = system: MCF7 breast
MDA-MB-231 breast = system: MDA-MB-231 breast
MDA-MB-435 = system: MDA-MB-435
MOLT-4 leukemia = system: MOLT-4 leukemia
NCI-H226 lung = system: NCI-H226 lung
NCI-H23 lung = system: NCI-H23 lung
NCI-H460 lung = system: NCI-H460 lung
NCI-H522 lung = system: NCI-H522 lung
NCI/ADR-RES ovarian = system: NCI/ADR-RES ovarian
OVCAR-3 ovarian = system: OVCAR-3 ovarian
OVCAR-4 ovarian = system: OVCAR-4 ovarian
OVCAR-5 ovarian = system: OVCAR-5 ovarian
OVCAR-8 ovarian = system: OVCAR-8 ovarian
PC-3 prostate = system: PC-3 prostate
RXF 393 renal = system: RXF 393 renal
SF-268 CNS = system: SF-268 CNS
SF-295 CNS = system: SF-295 CNS
SF-539 CNS = system: SF-539 CNS
SK-MEL-28 melanoma = system: SK-MEL-28 melanoma
SK-MEL-5 melanoma = system: SK-MEL-5 melanoma
SK-OV-3 ovarian = system: SK-OV-3 ovarian
SN12C renal = system: SN12C renal
SNB-19 CNS = system: SNB-19 CNS
SNB-75 CNS = system: SNB-75 CNS
SR leukemia = system: SR leukemia
SW-620 colon = system: SW-620 colon
T-47D breast = system: T-47D breast
TK-10 renal = system: TK-10 renal
UACC-257 melanoma = system: UACC-257 melanoma
UACC-62 melanoma = system: UACC-62 melanoma
UO-31 renal = system: UO-31 renal

Structure (SMILES): OCCCc1n(Cc2ccc3ccccc3c2)c2ccccc2[n+]1Cc1ccc2ccccc2c1
- GI50 (786-0 renal): 2090 nM
- TGI (786-0 renal): 4740 nM
- GI50 (A498 renal): 1380 nM
- TGI (A498 renal): 5180 nM
- GI50 (A549 NSCLC): 6970 nM
- TGI (A549 NSCLC): 31400 nM
- GI50 (ACHN renal): 12500 nM
- TGI (ACHN renal): 28000 nM
- GI50 (CCRF-CEM leukemia): 1990 nM
- TGI (CCRF-CEM leukemia): 5650 nM
- GI50 (COLO 205 colon): 838 nM
- TGI (COLO 205 colon): 2530 nM
- GI50 (DU-145 prostate): 3520 nM
- TGI (DU-145 prostate): 14200 nM
- GI50 (EKVX NSCLC): 3680 nM
- TGI (EKVX NSCLC): 19400 nM
- GI50 (HCC-2998 colon): 1650 nM
- TGI (HCC-2998 colon): 3250 nM
- GI50 (HCT-116 colon): 1050 nM
- TGI (HCT-116 colon): 2590 nM
- GI50 (HCT-15 colon): 11200 nM
- TGI (HCT-15 colon): 24800 nM
- GI50 (HL-60(TB) leukemia): 507 nM
- TGI (HL-60(TB) leukemia): 2360 nM
- GI50 (HOP-62 NSCLC): 2320 nM
- TGI (HOP-62 NSCLC): 11600 nM
- GI50 (HOP-92 NSCLC): 567 nM
- TGI (HOP-92 NSCLC): 3100 nM
- GI50 (HS 578T breast): 2150 nM
- TGI (HS 578T breast): 7960 nM
- GI50 (HT29 colon): 1020 nM
- TGI (HT29 colon): 4170 nM
- GI50 (IGROV1 ovarian): 800 nM
- TGI (IGROV1 ovarian): 2480 nM
- GI50 (KM12 colon): 1400 nM
- TGI (KM12 colon): 3080 nM
- GI50 (LOX IMVI melanoma): 1340 nM
- TGI (LOX IMVI melanoma): 2680 nM
- GI50 (M14 melanoma): 1330 nM
- TGI (M14 melanoma): 3560 nM
- GI50 (MALME-3M melanoma): 1280 nM
- TGI (MALME-3M melanoma): 2820 nM
- GI50 (MCF7 breast): 1700 nM
- TGI (MCF7 breast): 3670 nM
- GI50 (MDA-MB-231 breast): 1320 nM
- TGI (MDA-MB-231 breast): 2780 nM
- GI50 (MDA-MB-435): 1220 nM
- TGI (MDA-MB-435): 2710 nM
- GI50 (MOLT-4 leukemia): 1880 nM
- TGI (MOLT-4 leukemia): 5240 nM
- GI50 (NCI-H226 lung): 2230 nM
- TGI (NCI-H226 lung): 10500 nM
- GI50 (NCI-H23 lung): 1650 nM
- TGI (NCI-H23 lung): 8170 nM
- GI50 (NCI-H460 lung): 2430 nM
- TGI (NCI-H460 lung): 9570 nM
- GI50 (NCI-H522 lung): 1050 nM
- TGI (NCI-H522 lung): 3950 nM
- GI50 (NCI/ADR-RES ovarian): 27000 nM
- TGI (NCI/ADR-RES ovarian): > 100000 nM
- GI50 (OVCAR-3 ovarian): 1070 nM
- TGI (OVCAR-3 ovarian): 2810 nM
- GI50 (OVCAR-4 ovarian): 670 nM
- TGI (OVCAR-4 ovarian): 6730 nM
- GI50 (OVCAR-5 ovarian): 1980 nM
- TGI (OVCAR-5 ovarian): 7170 nM
- GI50 (OVCAR-8 ovarian): 2670 nM
- TGI (OVCAR-8 ovarian): 14000 nM
- GI50 (PC-3 prostate): 1740 nM
- TGI (PC-3 prostate): 11100 nM
- GI50 (RXF 393 renal): 1500 nM
- TGI (RXF 393 renal): 3830 nM
- GI50 (SF-268 CNS): 1810 nM
- TGI (SF-268 CNS): 4560 nM
- GI50 (SF-295 CNS): 2640 nM
- TGI (SF-295 CNS): 11300 nM
- GI50 (SF-539 CNS): 2010 nM
- TGI (SF-539 CNS): 6510 nM
- GI50 (SK-MEL-28 melanoma): 1220 nM
- TGI (SK-MEL-28 melanoma): 2880 nM
- GI50 (SK-MEL-5 melanoma): 1110 nM
- TGI (SK-MEL-5 melanoma): 2320 nM
- GI50 (SK-OV-3 ovarian): 2870 nM
- TGI (SK-OV-3 ovarian): 13600 nM
- GI50 (SN12C renal): 1850 nM
- TGI (SN12C renal): 10200 nM
- GI50 (SNB-19 CNS): 1270 nM
- TGI (SNB-19 CNS): 2850 nM
- GI50 (SNB-75 CNS): 1590 nM
- TGI (SNB-75 CNS): 4970 nM
- GI50 (SR leukemia): 1160 nM
- TGI (SR leukemia): 3780 nM
- GI50 (SW-620 colon): 1460 nM
- TGI (SW-620 colon): 3220 nM
- GI50 (T-47D breast): 615 nM
- TGI (T-47D breast): 6820 nM
- GI50 (TK-10 renal): 1950 nM
- TGI (TK-10 renal): 4740 nM
- GI50 (UACC-257 melanoma): 1180 nM
- TGI (UACC-257 melanoma): 3250 nM
- GI50 (UACC-62 melanoma): 666 nM
- TGI (UACC-62 melanoma): 2090 nM
- GI50 (UO-31 renal): 10400 nM
- TGI (UO-31 renal): 25300 nM
